# Tests used:
# [1] = molecular target: T1, QR2 (Homo sapiens, UniProt P16083); test: QR2 enzymatic activity assay (menadione/BNAH), absorbance readout at 350 nm; format: biochemical; parameters: purchased Sigma-Aldrich
# T1 sequence (P16083 1-231): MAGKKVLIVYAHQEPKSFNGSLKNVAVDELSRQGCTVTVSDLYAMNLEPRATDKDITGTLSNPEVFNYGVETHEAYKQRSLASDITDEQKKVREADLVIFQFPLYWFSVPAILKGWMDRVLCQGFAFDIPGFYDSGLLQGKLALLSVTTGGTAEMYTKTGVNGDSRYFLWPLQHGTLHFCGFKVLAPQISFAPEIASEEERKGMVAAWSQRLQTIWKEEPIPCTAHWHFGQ
# Method: (§1) The enzymatic activity of QR2 (10 nM) was measured using menadione (both Sigma-Aldrich) as substrate and dihydrobenzylnicotamide (BNAH; Tocris) as co-substrate (Boutin et al., 2005). The reaction was performed in 50 mM Tris HCl, 150 mM NaCl 0.01% Tween-20 pH=8.5 (Sigma-Aldrich) at room temperature. Briefly, 3 μL of menadione alone (200 μM) or a mixture of menadione and QR2 (200 μM of menadione and 10 nM of QR2) were dispensed in 1536-well black Nunc plates (Thermo-Fisher) using a Multidrop™ Combi Reagent Dispenser (Thermo-Fisher) and pre-incubated with compounds for 10 min. BNAH (200 μM) was then added (3 μL) to the reaction using a BioNex Solutions BNX 1536 plate washer and the plates were incubated for another 10 min. […] The initial HTS was done with approximately 200,000 compounds at a single concentration of 5 μM. The chemical libraries used were Selleck Chemicals Bioactives, the Drug-like set from Enamine, HitFinder collection from Maybridge, Spectrum Collection from Microsource, Lopac from Sigma-Aldrich and the diversity sets from ChemDiv and ChemBridge. Initial “hit” compounds were defined as causing >30% reduction of enzyme activity. […] “Hit” compounds resulting from both the fluorescence and absorbance assay were tested in a dose-response, and median inhibition concentration (IC50) values were determined. In parallel, the same dose response was used in a selectivity assay where QR2 enzyme was replaced by QR1 (also known as—NQO1, 10 nM; Sigma-Aldrich).
# (§2) In order to establish a varied, flexible and chemically amenable starting point from which to develop such inhibitors, the inventors ran a standardized QR2 assay (see methods) against ˜200,000 compounds, from a varied assortment of chemical libraries.
# [2] = molecular target: T1, QR2; test: QR2 enzymatic activity assay (menadione/BNAH), fluorescence readout; format: biochemical; parameters: purchased Sigma-Aldrich
# Method: as §1, §2
# [3] = molecular target: T2, QR1 (NQO1) (Homo sapiens, UniProt P15559); test: Selectivity assay with QR1 in place of QR2, fluorescence readout; format: biochemical
# T2 construct: purchased Sigma-Aldrich
# T2 sequence (P15559 whole entry): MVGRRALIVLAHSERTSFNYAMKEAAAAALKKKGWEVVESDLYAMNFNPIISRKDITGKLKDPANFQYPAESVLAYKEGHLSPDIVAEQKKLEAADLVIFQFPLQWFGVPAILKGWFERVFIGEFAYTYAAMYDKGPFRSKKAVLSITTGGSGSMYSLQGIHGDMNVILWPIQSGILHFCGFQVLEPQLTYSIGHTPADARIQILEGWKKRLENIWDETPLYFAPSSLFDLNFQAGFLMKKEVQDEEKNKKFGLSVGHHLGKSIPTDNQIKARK
# Method: (§3) The enzymatic activity of QR2 (10 nM) was measured using menadione (both Sigma-Aldrich) as substrate and dihydrobenzylnicotamide (BNAH; Tocris) as co-substrate (Boutin et al., 2005). The reaction was performed in 50 mM Tris HCl, 150 mM NaCl 0.01% Tween-20 pH=8.5 (Sigma-Aldrich) at room temperature. Briefly, 3 μL of menadione alone (200 μM) or a mixture of menadione and QR2 (200 μM of menadione and 10 nM of QR2) were dispensed in 1536-well black Nunc plates (Thermo-Fisher) using a Multidrop™ Combi Reagent Dispenser (Thermo-Fisher) and pre-incubated with compounds for 10 min. BNAH (200 μM) was then added (3 μL) to the reaction using a BioNex Solutions BNX 1536 plate washer and the plates were incubated for another 10 min. […] The initial HTS was done with approximately 200,000 compounds at a single concentration of 5 μM. The chemical libraries used were Selleck Chemicals Bioactives, the Drug-like set from Enamine, HitFinder collection from Maybridge, Spectrum Collection from Microsource, Lopac from Sigma-Aldrich and the diversity sets from ChemDiv and ChemBridge. Initial “hit” compounds were defined as causing >30% reduction of enzyme activity. Compounds suspected to be fluorescent were re-assayed in an absorbance assay at 350 nm using the same reaction but in a higher volume (100 μL), in a transparent plate (Greiner Bio-One). “Hit” compounds resulting from both the fluorescence and absorbance assay were tested in a dose-response, and median inhibition concentration (IC50) values were determined. In parallel, the same dose response was used in a selectivity assay where QR2 enzyme was replaced by QR1 (also known as—NQO1, 10 nM; Sigma-Aldrich).
# (§4) In order to establish a varied, flexible and chemically amenable starting point from which to develop such inhibitors, the inventors ran a standardized QR2 assay (see methods) against ˜200,000 compounds, from a varied assortment of chemical libraries. […] Compounds that replicated the initial hit result were then assayed similarly, against NQO1, to evaluate compound specificity (FIG. 1B). From the HTS, a series of compounds containing a sulfonamide central linker, with an amine on one side and a heterocycle on the other, were identified and selected for SAR development (FIG. 1C).
# [4] = in vitro; details: human
# Method: THLE-2 (CRL-2706™) were grown in the BEGM Bullet Kit (CC-3170) from Lonza. Besides the additives contained in the kit, the medium was further supplemented with 5 ng/mL EGF (Sigma), 70 ng/mL phosphoethanolamine (Sigma) and 10% FBS (Biological Industries). The plates for the THLE-2 needed to be pre-coated with a mixture of 0.01 mg/mL fibronectin, 0.05 mg/mL of PureCol™ EZ Gel Solution (Sigma) and 0.01 mg/mL of BSA dissolved in BEBM medium (Lonza). The coating medium was aspirated before seeding.
# THLE-2 cells were exposed to the compounds in a 9-point, 2-fold dilution dose response series with a 100 μM as upper limit, for 72 h. Following the 72 h of exposure to the test compounds, cell viability was determined by measuring the concentration of cellular ATP (CellTiter Glo, Promega). The luminescence signal was measured on a Pherastar FS multi-mode plate reader (BMG Labtech). Each data point was tested in a triplicate.
# First, toxicity was assessed in an ATP depletion assay, using THLE-2 cells following a 72 h exposure to a dose response of each of the tested compounds.
# [5] = molecular target: T2, QR1 (NQO1); test: Selectivity assay with QR1 in place of QR2, absorbance readout; format: biochemical
# Method: as §3, §4
SMILES,IC50 [1] [µM],IC50 [2] [µM],IC50 [3] [µM],IC50 at 72 h [4] [µM],IC50 [5] [µM]
Cc1cc(-c2ccc(C)c(S(=O)(=O)N3CCN(C(=O)c4ccco4)CC3)c2)on1 [PCM-0212388],1.25,1.19,> 9.99,124,> 9.99
Cc1ccc(-c2cn3cccc(C)c3n2)cc1S(=O)(=O)N1CCCCCC1 [PCM-0214338],0.03,0.02,> 9.99,> 99,> 9.99
Cc1ccn2cc(-c3cccc(S(=O)(=O)N4CCCC4)c3)nc2c1 [PCM-0124535],0.16,0.59,> 9.99,88.9,> 9.99
Cc1cc(-c2ccc(C)c(S(=O)(=O)N3CCC(C)CC3)c2)on1 [PCM-0212387],1.83,2.89,> 9.99,50,> 9.99
Cc1cc(-c2ccc(C)c(S(=O)(=O)N3CCCC3)c2)on1 [PCM-0212386],0.75,0.42,> 9.99,65.1,> 9.99
Cc1cc(-c2ccc(C)c(S(=O)(=O)N3CCCCCC3)c2)on1 [PCM-0212385],1.24,1.92,> 9.99,23.8,> 9.99
Cc1ccn2cc(-c3cccc(S(=O)(=O)N4CCCCCC4)c3)nc2c1 [PCM-0213798],0.41,1.27,> 9.99,,> 9.99
CC(=O)N1CCOc2ccc(S(=O)(=O)N3CCCc4ccccc43)cc21 [PCM-0119249],> 9.99,> 9.9,4.7,,3.48
Cc1ccc2nc(-c3cccc(S(=O)(=O)N4CCOCC4)c3)cn2c1 [PCM-0124615],1.65,3.25,> 9.9,,> 9.99
Cc1cc(-c2ccc(C)c(S(=O)(=O)N3CCC(C)CC3)c2)n[nH]1 [PCM-0213799],0.27,0.9,> 9.99,,> 9.99
CNC(=O)N1CCc2cc(S(=O)(=O)N3CCc4ccccc43)ccc21 [PCM-0181527],> 9.99,> 9.9,> 9.9,,> 9.99
Cc1ccc(-c2nnc(-c3ccccc3)o2)cc1S(=O)(=O)N(C)C [PCM-0127506],1.62,2.2,> 9.99,,> 9.99
CCOC(=O)c1c(S(=O)(=O)N(CCC(C)C)Cc2ccco2)c(C)n(C)c1C [PCM-0120203],8.53,8.21,3.79,,> 9.9
COc1cc(Cl)c(NS(=O)(=O)c2ccc(-c3cc(C)no3)cc2OC)c(OC)c1 [PCM-0131156],2.73,3.82,> 9.9,,> 9.99
COc1ccc(O)cc1NC(=O)c1oc2ccc(S(=O)(=O)N3CCCC3)cc2c1C [PCM-0193675],> 9.99,> 9.9,> 9.9,,> 9.99
Cc1cccn2cc(-c3cccc(S(=O)(=O)Nc4ccc(Cl)cc4)c3)nc12 [PCM-0213788],0.05,3.04,> 9.99,,> 9.99
CCCN(CCC)S(=O)(=O)c1cccc(-c2cn3cccc(C)c3n2)c1 [PCM-0124772],0.75,0.83,> 9.9,,> 9.99
Cc1cc(-c2ccc(C)c(S(=O)(=O)N3CCCCCC3)c2)[nH]n1 [PCM-0213795],0.28,0.64,> 9.99,,> 9.99
Cc1ccn2cc(-c3cccc(S(=O)(=O)NCCCN4CCCC4=O)c3)nc2c1 [PCM-0213817],0.32,0.7,5.28,,3.44
Cc1ccc2nc(-c3cccc(S(=O)(=O)N4CC(C)OC(C)C4)c3)cn2c1 (stereo not drawn) [PCM-0124655],3.03,4.42,> 9.9,,> 9.99
Cc1cc(-c2ccc(C)c(S(=O)(=O)NCCCN3CCCC3=O)c2)n[nH]1 [PCM-0213815],0.28,0.93,> 9.99,,> 9.99
CCc1noc(-c2c(S(=O)(=O)NCc3cccc(OC)c3)c(C)n(C)c2C)n1 [PCM-0200337],8.09,> 9.9,> 9.9,,> 9.99
Cc1ccn2cc(-c3ccc(C)c(S(=O)(=O)N4CCC(C)CC4)c3)nc2c1 [PCM-0214339],4.49,3.96,,59.4,
CCOC(=O)c1c(S(=O)(=O)N2CCN(Cc3ccccc3)CC2)c(C)n(C)c1C [PCM-0119478],> 9.99,> 9.9,> 9.9,,> 9.99

# Other lines, results leading:
IC50 [1] [µM],IC50 [2] [µM],IC50 [3] [µM],IC50 at 72 h [4] [µM],IC50 [5] [µM],SMILES
0.01,0.004,5.83,45.4,7.24,Cc1cccn2cc(-c3cccc(S(=O)(=O)N4CCCCCC4)c3)nc12 [PCM-0124812]
0.02,0.02,> 9.99,> 99,7.18,Cc1cccn2cc(-c3cccc(S(=O)(=O)NCc4cccnc4)c3)nc12 [PCM-0213814]
2.37,3.26,> 9.9,219,> 9.99,Cc1cc(-c2ccc(C)c(S(=O)(=O)NCCCN3CCCC3=O)c2)on1 [PCM-0184891]
3.2,4.16,> 9.9,,> 9.99,CCOC(=O)C1CCN(S(=O)(=O)c2cc(-c3csc(C)n3)ccc2C)CC1 [PCM-0197024]
1.22,2.18,> 9.9,,> 9.99,Cc1ccn2cc(-c3cccc(S(=O)(=O)N4CC(C)CC(C)C4)c3)nc2c1 (stereo not drawn) [PCM-0124575]
0.05,0.17,> 9.99,,> 9.99,Cc1cc(-c2ccc(C)c(S(=O)(=O)N3CCCC3)c2)n[nH]1 [PCM-0213806]
8.89,> 9.9,4.6,,> 9.99,CCCS(=O)(=O)Nc1ccc2c(c1)C(=O)Nc1cc(C)ccc1O2 [PCM-0120253]
1.16,2.36,> 9.99,,> 9.99,Cc1cc(-c2ccc(C)c(S(=O)(=O)Nc3ccc(Cl)cc3)c2)[nH]n1 [PCM-0186036]
> 9.99,< 0.83,< 0.83,,> 9.99,N#Cc1nc(-c2ccc(S(=O)(=O)N3CCCC3)cc2)oc1NCCCN1CCOCC1 [PCM-0172736]
1.28,4.65,> 9.99,,> 9.99,Cc1nc(-c2ccc(C)c(S(=O)(=O)N3CCN(C(=O)c4ccco4)CC3)c2)cs1 [PCM-0197066]

# Reference: US20240228481A1, “NOVEL SULFONAMIDE SERIES OF QR2 INHIBITORS TO TACKLE OXIDATIVE STRESS AND COGNITIVE DECLINE” (CARMEL HAIFA UNIVERSITY ECONOMIC CORPORATION LTD., priority 2021, published 2024)
